Measurements reported in patent publication US20260130885A1, “ANTIMICROBIAL COMPOSITIONS, PHARMACEUTICAL COMPOSITIONS AND USE THEREOF” (priority 2022, published 2026).
Converted amounts (≈) assume the structure as drawn.

How the values were obtained:
MRSA SCCmec VT = assay: Antibacterial activity assay (MIC, broth microdilution); assay type: cell-based, Staphylococcus aureus; conditions: for MIC: Staphylococcus aureus, MRSA
[1] = system: MRSA USA300 persister cells; assay: Persister killing assay; assay type: cell-based, Staphylococcus aureus; conditions: SC5005 16×MIC, 4 mg/L; FIG. 1
Description: (§1) The number of viable bacteria in broth after each exposure period was enumerated by a cfu assay and expressed as cfu/mL; the data shown are the mean±SD (standard deviation) of independent experiments. […] The number of viable bacteria in the broth after each exposure period was calculated by a cfu assay (cfu/mL); the data are shown as the mean±SD of three independent experiments (n=3 for each group). Since the standard deviation of each point is very small, the error line is not shown in each graph. The horizontal dashed line in the upper left graph and the upper right graph represents […] of the bacterial cells killed. In addition, the blank controls in FIG. 1 are shown as filled diamonds.
(§2) Bacteria were collected by centrifugation at 4000×g for 10 min at 4° C., washed with ice-cold PBS, and suspended in PBS with test agents. Controls received DMSO and ethanol vehicles at concentrations equal to those for drug-treated bacteria. At the designated times, the number of viable bacteria was assessed by serial dilution of a 100 μL aliquot bacterial suspension in PBS and then spread onto LB agar plates. After incubation at 37° C. for 18-24 hours, the number of colonies was counted and expressed as cfu/mL.

[2] = system: S. aureus NCTC8325 persister cells; assay: Persister killing assay; assay type: cell-based, Staphylococcus aureus; conditions: SC5005 16×MIC, 4 mg/L; FIG. 1
Description: as §1, §2

VRSA SJC1200 = assay: Antibacterial activity assay (MIC, broth microdilution); assay type: cell-based, Staphylococcus aureus; conditions: for MIC: Staphylococcus aureus, VRSA
MRSA USA300 = assay: Time-kill kinetics (cfu assay); assay type: cell-based, Staphylococcus aureus; conditions: SC5005 4×MIC, 1 mg/L; FIG. 1
Description: as §1
In this experiment, the inventor analyzed the time-kill kinetics of SC5005, DHA, and a combination thereof against Staphylococcus aureus NCTC8325 and MRSA USA300, and the results are shown in FIG. 1. It can be seen in FIG. 1 that SC5005 killed more than 99.9% of the bacteria within 24 hours. […] Besides, it is well known in the art that Staphylococcus aureus can enter a dormant state (i.e., become the so-called persister cells) and develop resistance to antibiotic treatment, thus leading to repeated bacterial infections.

[3] = system: antibiotic-resistant Staphylococcus aureus; assay: MIC against all strains of Table 4; assay type: cell-based; conditions: agent alone, all the bacterial strains under the examination
Description: The antimicrobial activity was based on MIC and MBC; MIC is the minimum inhibitory concentration and MBC is the minimum bactericidal concentration. The MIC of individual test agents against MRSA USA300 strains was determined using the broth microdilution method according to CLSI guidelines. Briefly, overnight bacterial cultures in LB medium were diluted 1:50 in fresh LB medium and incubated at 37° C. until reaching an OD600 of 0.5 to 0.6. Bacterial suspensions were diluted to a final concentration of 5×10^5 cfu/mL in fresh CAMHB and then exposed to each test agent at increasing doses in triplicate in 96-well plates for 24 hours at 37° C. The MIC of each agent was defined as the lowest concentration without visible bacterial growth. […] The lowest broth dilution that had no viable bacteria was considered the MBC.
Then, the combination effect was measured by calculating their corresponding fractional inhibitory concentration index (FICI) with the equation ΣFIC (FICi)=FICA+FICB=(CombA/MICA)+(CombB/MICB), where MICA and MICB are the MICs of drugs A and B alone, respectively, and CombA and CombB are the concentrations of drugs A and B in combination, respectively. […]
The antibacterial activity of the SC5005-DHA composition against a series of antibiotic-resistant Staphylococcus aureus was analyzed, and the results are shown in Table 4.

MIC (MRSA SCCmec VT; +8 mg/L DHA): 0.0019 ng/mL (≈ 0.00364 nM)
MIC (MRSA SCCmec VT; agent alone): 250 ng/mL (≈ 479 nM)
MIC (VRSA SJC1200; +8 mg/L DHA): 0.0019 ng/mL (≈ 0.00364 nM)
MIC (VRSA SJC1200; agent alone): 250 ng/mL (≈ 479 nM)
MIC [3]: 250 ng/mL
SMILES: O=C(Nc1ccc(Cl)c(C(F)(F)F)c1)C(CCCl)C(=O)Nc1ccc(Cl)c(C(F)(F)F)c1 [SC5005]
combination effect (MRSA SCCmec VT; MIC, +8 mg/L DHA): (Syn) (Synergy (Syn) was defined as an FICI≤0.5)
time to eradication of persister cells [1]: ≤ 24 h
time to eradication of persister cells [2]: ≤ 24 h
combination effect (VRSA SJC1200; MIC, +8 mg/L DHA): (Syn) (Synergy (Syn) was defined as an FICI≤0.5)
bacteria killed within 24 hours (MRSA USA300): more than 99.9%
